Values after ≈ are worked out from the molar mass of the structure shown. Read-outs that look alike come from different tables or passages of the source.
What was measured:
[1] = human, in vivo
Text: In summary, the MicroDose Inhaler operation comprises the drug powder contained in a protective blister until delivery. The blister is pierced externally and then placed in contact with a piezoelectric vibrator within the MicroDose Inhaler. When the patient inhales, an airflow sensor automatically turns on the piezo which provides energy to deaggregate the particles of powder and aerosolizes them into the inhalation airstream, providing synchronized delivery. The MicroDose Inhaler was triggered by pressure drop and programmed to produce a series of brief aerosol bursts of predetermined duration within the range of 0.1 to 2.0 seconds, preferably 0.1 seconds, early during each inhalation cycle and for 16 consecutive breaths. The studies were conducted as follows:
Study 3: A Double-Blind, Randomized, 3 Period Crossover, Single Ascending Dose Study to Assess the Safety and Tolerability of Inhaled MDT-637 P3 in Subjects with Intermittent or Mild-to-Moderate Persistent Asthma (Asthma Trial)
The primary objective of Study 3 was to assess the safety and tolerability of MDT-637 P3 when inhaled by subjects with Intermittent, or Mild-to-Moderate Persistent, Asthma. A secondary objective of Study 3 was to determine the rate and extent of systemic absorption of MDT-637 and trough nasal wash MDT-637 drug concentrations following dry powder inhalation dosing.
Each subject was dosed on 3 separate days during the study. Each subject received an initial dose of placebo (Period 1), followed by random allocation at Period 2 to a single dose of nasally inhaled MDT-637 P3 or double blind placebo. After an observation and furlough period, subjects returned for Period 3 to receive three doses of study drug (MDT-637 P3 or placebo) over a single day as listed below. The study consisted of 5 visits: Visit 1 (Screening), Visits 2, 3 and 4 (Dosing), and Visit 5 (Follow up); subjects were furloughed from the clinic for 6 up to 14 days between Visits 3 and 4 and 7-8 days between Visit 4 and 5. Subjects who met all of the inclusion criteria and none of the exclusion criteria (Table 19, FIG. 29) at Visit 1 were eligible to return for Visit 2 within 42 days of screening. Subjects were admitted to the study center twice, once for Visit 2 and again for Visit 4. Visit 5, was a safety follow up (outpatient) visit.
The doses of MDT-637 P3 were determined based on previous clinical experience in Study 1. Both placebo and active were administered as a dry powder for nasal inhalation via a face mask using a MicroDose Inhaler device. At Visit 2, all 10 patients were dosed with placebo Once Daily. At Visit 3, subjects were randomly allocated so that 8 subjects were dosed with MDT-637 P3 Once Daily 66 mcg and 2 subjects received double blind placebo. At Visit 4, subjects were again randomly allocated so that 8 subjects were dosed with MDT-637 TID 132 mcg and 2 subjects received double blind placebo.
Pharmacokinetic variables (Cmax, Tmax, AUC, T1/2) were evaluated based on blood samples drawn at Visit 4.

[2] = human, in vivo; remark: listed apart in the source
Experimental: The study consisted of 3 visits: Visit 1 (Screening), Visit 2 (Dosing) and Visit 3 (Follow up); subjects furloughed from the clinic between Visits 2 and 3.
Both active and matched placebo were administered via face mask inhalation from a proprietary delivery system (MicroDose inhaler).
Single doses were administered in the morning. TID doses will be administered at 6 hour intervals, with the 1st of the 3 doses administered in the morning.
Pharmacokinetic variables (Cmax, Tmax, AUC, T1/2) were evaluated based on blood samples drawn at Visit 2.

RSV = conditions: background statement, cited from earlier work
[3] = human, in vivo; remark: listed apart in the source
Experimental: Subjects were enrolled in cohorts of 12 subjects. […] The study consisted of 3 visits: Visit 1 (Screening), Visit 2 (Dosing), Visit 3 (Follow up) and subjects remained at the study site for pharmacokinetic (PK) sampling, spirometry, and safety assessments. […] Day 1 was the first day of dosing and Day 10 was the final day of dosing, following which subjects remained at the study site for 24 hours following the last dose for PK sampling and spirometry. Visit 3 was a follow-up visit, 7 to 10 days after the last dose. Cohorts were dosed as follows:
The first doses for twice daily (BID) and three times daily (TID) were administered in the morning, starting at approximately 0700 hours on each day of dosing. BID doses were administered at 12 hour intervals and TID doses were administered at 6 hour intervals each dose day.
Pharmacokinetic endpoints (Cmax, Tmax, AUC, T1/2) and dose proportionality was assessed based on a limited number of plasma samples following the first dose on Day 1 and last dose on Day 10
Pharmacokinetic variables (Cmax, Tmax, AUC, T1/2) were evaluated based on blood samples drawn following first dose (Days 1-2) and last dose (Days 10-11).

[4] = Bulk powder density and flow indices (volumetric); assay type: physicochemical
[5] = for Total Imp/Deg: listed as P224-135-2; for number of impurity peaks: listed as P-2
Experimental: Forced degradation experiments consisted of placing solid samples of P-2 hydrate and P-3 dihydrate materials in sealed glass bottles at 120° C. for 7 days.

physchem [6] = conditions: 37 °C, water, thermodynamic from solid
physchem [7] = assay: physchem
Experimental: Equilibrium solubility of different API forms in aqueous ethanol: This solubility was determined for P-2 and P-3 crystal forms using slurry equilibration and solution concentration measurement with HPLC.

physchem [8] = conditions: 25 °C, organic solvent or mixture, thermodynamic from solid
[9] = Text: Four lots of MDT-637 API were micronized using a 2-inch spiral jet mill.
[10] = Particle size of micronized material (Sympatec HELOS & RODOS); assay type: physicochemical
[11] = Slurry of equal mixture of six phases in 75/25 acetone-water (PXRD); assay type: physicochemical; conditions: 25° C., 12 days
Experimental: An equal powder mixture of six known phases (P-2, P-3, P-4, P-6, P-7 and P-8), 50 mg each were stirred in 75/25 acetone-water solvent (50 mL) at 25° C. over 12 days.

[12] = 40° C./75% RH, 4 weeks
[13] = Specific surface area (BET); assay type: physicochemical
[14] = Critical water activity by DVS sorption/desorption isotherms; assay type: physicochemical
Text: The characteristic gravimetric loss of water is between 1-4.5% w/w.
The characteristic gravimetric loss of water for P-3 dihydrate is between 5.5-8.5% w/w. The profound difference of the DVS curves between the P-2 and P-3 forms can be utilized as a secondary technique for quantitative phase analysis of these forms.

[15] = remark: listed apart in the source
Experimental: The data are shown for: (a) non-hydrogenated DPPC (Sigma-Aldrich, USA) and (b) hydrogenated DPPC (Lipoid LLC, USA) surfactants at 0.02% w/v concentration. Each data point represents a triplicate sample obtained at temperature 37° C.
Time-dependent solubility study was carried out in simulated lung fluid (SLF) containing the surfactant dipalmitoylphosphatidylcholine (DPPC). The DPPC is a major surfactant present in the human lung.
Simulated lung fluid was prepared according to a method described by Moss et al. (Health Physics 1979, v36, 447-448).
A 0.1% DPPC in water solution was prepared according to a procedure published by Marques et al. (Dissolution Technologies, August 2011). The SLF solution modified with 0.02% DPPC was prepared by diluting the 0.1% DPPC solution with SLF. Refer to NB1181P59-60 for the details on the preparation procedure of SLF and SLF modified with 0.02% DPPC. Two types of DPPC were used in the study. The hydrogenated DPPC was supplied by Lipoid LLC (USA), while the non-hydrogenated DPPC was supplied by Sigma-Aldrich (catalogue # P0763-1G). […] In order to segregate the solid drug substance from the cloudy solution, a dialysis tube (Sigma-Aldrich catalogue # D9277-100FT) was used. A saturated solution of the drug substance in SLF modified with 0.02% DPPC was prepared and carefully transferred into the dialysis tube (˜10 mL in volume). […]

[16] = Competitive slurry stability study between P-2 and P-3 (PXRD quantitative phase analysis); assay type: physicochemical; conditions: 50/50 acetonitrile/water, 25° C.
[17] = Thermodynamic relationship (hierarchy) of P-2 and P-3 crystal forms; assay type: physicochemical
Text: FIG. 17 illustrates the thermodynamic relationship (hierarchy) of the P-2 and P-3 families of crystal forms.

## Cc1nnnn1/N=C/c1ccc(O)c(C(c2ccc(O)cc2)c2cc(/C=N/n3nnnc3C)ccc2O)c1 [MDT-637, phenol, 2,2′-[(4-hydroxyphenyl)methylene]bis[4-[[(5-methyl-1H-tetrazol-1-yl)imino]methyl]]]
[1]
  clinically significant changes in pulmonary function / pulmonary AEs: no clinically significant changes in pulmonary function or reports of pulmonary adverse events
[2]
  clinically significant changes in labs, vital signs, ECGs, physical exams: no clinically significant changes in pulmonary function, ECG, laboratory values vitals or physical examination
RSV
  potency relative to ribavirin: 40,000 times
RSV; pre- and post-infection
  reduction of RSV viral count: effective in reducing RSV viral count both pre- and post-infection
[3]
  changes in pulmonary function / pulmonary AEs (serial spirometry): no significant changes were observed in pulmonary function or reports of pulmonary adverse events

## Cc1nnnn1/N=C/c1ccc(O)c(C(c2ccc(O)cc2)c2cc(/C=N/n3nnnc3C)ccc2O)c1 [P-2 hydrate, phenol, 2,2′-[(4-hydroxyphenyl)methylene]bis[4-[[(5-methyl-1H-tetrazol-1-yl)imino]methyl]]]
[4]
  Carr index: 16.7%
  Hausner ratio: 1.20
  Poured bulk powder density: 0.16 g/mL
  Tapped bulk powder density: 0.19 g/mL
[5]; 120C/7D
  Grand Total: 99.8 Area %
  Total Imp/Deg: 0.76 Area %
[5]; 7 days
  Impurity/Degradation Product A: 0.07 Area %
  Impurity/Degradation Product H: 0.40 Area %
  Impurity/Degradation Product I: 0.07 Area %
  Impurity/Degradation Product K: 0.16 Area %
  Impurity/Degradation Product P: 0.06 Area %
[5]; CTRL
  Grand Total: 99.9 Area %
  Total Imp/Deg: 0.67 Area %
[5]; control
  number of impurity peaks: 4 peaks
[5]; stressed sample, 120° C. for 7 days
  number of impurity peaks: 5 peaks
Physchem [6]
  solubility: < 6 nM
Physchem [7]
  equilibrium solubility: 416.5 µg/mL
Physchem [8]
  solubility: 190 µg/mL
[9]
  effect of micronization on crystallinity, phase purity, chemical degradation: did not affect the crystallinity, phase purity
[10]
  Characteristic medium volume particle size (micronized): 1.1 μm
[11]
  form conversion / stability in six-phase slurry: most thermodynamically stable form
[12]; open dish, listed as P-2
  Assay: 98.8%
  Rel Subs: 0.68%
  Water: 3.5%
[12]; open wide glass bottles
  change of form / solid-state stability (DSC and PXRD): no change of form
  chemical stability: Acceptable chemical stability
[13]
  Specific surface area: 22.6 m^2/g
[14]; 1% RH equilibration steps
  critical water activity for transition between P-2 hydrate and anhydrous forms: 30-40 % RH
[14]; 20° C.
  Characteristic relative humidity of dehydration (20° C.): 30-40%
[15]
  factor by which solubility is lower than that of P-3 dihydrate: 5 to 6
[16]; 4 days (50% at day 0)
  composition of slurry for P-2 hydrate: 77%
[16]; 10 days (50% at day 0)
  composition of slurry for P-2 hydrate: 85%
[17]; ambient conditions (15-37° C., 40-100% RH)
  thermodynamic stability: most stable crystal form

## Cc1nnnn1/N=C/c1ccc(O)c(C(c2ccc(O)cc2)c2cc(/C=N/n3nnnc3C)ccc2O)c1 [P-3 ethanolate, phenol, 2,2′-[(4-hydroxyphenyl)methylene]bis[4-[[(5-methyl-1H-tetrazol-1-yl)imino]methyl]]]
Physchem [7]; organic solvent or mixture, thermodynamic from solid, equilibrium solubility
  solubility thermodynamic: 240 µg/mL (≈ 470 µM)
[17]; sufficient activity of ethanol, preferably above 0.3
  thermodynamic stability: most stable crystal form

## Cc1nnnn1/N=C/c1ccc(O)c(C(c2ccc(O)cc2)c2cc(/C=N/n3nnnc3C)ccc2O)c1 [P-4, phenol, 2,2′-[(4-hydroxyphenyl)methylene]bis[4-[[(5-methyl-1H-tetrazol-1-yl)imino]methyl]]]
[11]
  form conversion / stability in six-phase slurry: convert to P-2 hydrate

## Cc1nnnn1/N=C/c1ccc(O)c(C(c2ccc(O)cc2)c2cc(/C=N/n3nnnc3C)ccc2O)c1 [P-6, phenol, 2,2′-[(4-hydroxyphenyl)methylene]bis[4-[[(5-methyl-1H-tetrazol-1-yl)imino]methyl]]]
[11]
  form conversion / stability in six-phase slurry: convert to P-2 hydrate

## Cc1nnnn1/N=C/c1ccc(O)c(C(c2ccc(O)cc2)c2cc(/C=N/n3nnnc3C)ccc2O)c1 [P-7, phenol, 2,2′-[(4-hydroxyphenyl)methylene]bis[4-[[(5-methyl-1H-tetrazol-1-yl)imino]methyl]]]
[11]
  form conversion / stability in six-phase slurry: convert to P-2 hydrate

## Cc1nnnn1/N=C/c1ccc(O)c(C(c2ccc(O)cc2)c2cc(/C=N/n3nnnc3C)ccc2O)c1 [P-8, phenol, 2,2′-[(4-hydroxyphenyl)methylene]bis[4-[[(5-methyl-1H-tetrazol-1-yl)imino]methyl]]]
[11]
  form conversion / stability in six-phase slurry: convert to P-2 hydrate
